Experiments:
dog [1] = conditions: Chronic toxicity, beagle, Oral, Capsule, dose end: 52 week, group: systemic
rat [2] = conditions: Multigenerational reproductive toxicity study, Other, Oral, Feed, dose end: 2 generation
dog [3] = conditions: Subchronic oral toxicity in nonrodent, beagle, Capsule, dose end: 13 week, group: systemic
mouse [4] = conditions: Carcinogenicity, cd1, Oral, Feed, dose end: 18 month, group: systemic
mouse [5] = conditions: Subchronic oral toxicity in rodents, cd1, Feed, dose end: 13 week, group: systemic
rat [6] = conditions: Subchronic oral toxicity in rodents, fischer, Feed, dose end: 13 week, group: systemic, systemic / organ weight / adrenal gland / nos + systemic / organ weight / kidney / nos + systemic / organ weight / liver / nos + systemic / …
rat [7] = conditions: Prenatal developmental toxicity study, sprague dawley, Oral, Gavage/Intubation, dose end: 16 GD
rabbit = conditions: Prenatal developmental toxicity study, new zealand white, Oral, Gavage/Intubation, dose end: 19 GD, group: maternal
rat [8] = conditions: Combined chronic toxicity/carcinogenicity; sprague dawley; Oral; Feed; dose end: 24 month; group: systemic; systemic / clinical chemistry / sodium / sodium
dog [9] = conditions: Chronic toxicity; beagle; Oral; Feed; dose end: 12 month; group: systemic; systemic / clinical chemistry / sodium / sodium + systemic / in life observation / body weight / body weight + systemic / in life …
mouse [10] = conditions: Subchronic oral toxicity in rodents, b6c3f1, Water, dose end: 30 day, group: systemic
[11] = systemic / pathology microscopic / liver / pigmentation + systemic / clinical chemistry / alkaline phosphatase (alp/alk) / alkaline …
[12] = group: offspring, systemic / in life observation / body weight / offspring (pup) weight + systemic / pathology gross / liver / discolored + systemic / …
[13] = group: parental, systemic / organ weight / liver / relative to body weight
[14] = group: parental, systemic / organ weight / liver / relative to body weight + systemic / in life observation / body weight / body weight + systemic / in life …
[15] = systemic / clinical chemistry / alkaline phosphatase (alp/alk) / alkaline phosphatase (alp/alk) + systemic / pathology gross / liver / …
[16] = systemic / organ weight / prostate / relative to body weight
[17] = systemic / organ weight / liver / relative to body weight
[18] = systemic / organ weight / liver / relative to body weight + systemic / organ weight / liver / absolute
[19] = systemic / pathology microscopic / liver / hypertrophy
[20] = systemic / pathology microscopic / liver / hypertrophy + systemic / clinical chemistry / alanine aminotransferase (alt/sgpt) / alanine …
[21] = group: developmental, developmental / developmental malformation / bone / incomplete ossification + systemic / in life observation / body weight / fetal weight + …
[22] = group: maternal, systemic / in life observation / body weight / body weight + systemic / in life observation / body weight / body weight gain + systemic / in…
[23] = systemic / organ weight / liver / relative to body weight + reproductive / reproductive performance / aborted / aborted + reproductive / …
[24] = systemic / clinical chemistry / triglycerides / triglycerides
[25] = systemic / organ weight / kidney / absolute + systemic / organ weight / kidney / relative to body weight + systemic / organ weight / liver…

SMILES: CSC(=O)c1c(C(F)F)nc(C(F)(F)F)c(C(=O)SC)c1CC(C)C [Dithiopyr]
- LOAEL (dog [1]; systemic / pathology microscopic / liver / pigmentation): 5 mg/kg/day
- LEL (dog [1]; [11]): 5 mg/kg/day
- NEL (dog [1]; [11]): 0.5 mg/kg/day
- NOAEL (dog [1]; [11]): 0.5 mg/kg/day
- LEL (rat [2]; [12]): 19.9 mg/kg/day
- LOAEL (rat [2]; [12]): > 218 mg/kg/day
- NEL (rat [2]; [12]): 2 mg/kg/day
- NOAEL (rat [2]; [12]): ≥ 218 mg/kg/day
- LEL (rat [2]; [13]): 16.4 mg/kg/day
- LOAEL (rat [2]; [13]): 16.4 mg/kg/day
- NEL (rat [2]; [14]): 1.7 mg/kg/day
- NOAEL (rat [2]; [14]): 1.7 mg/kg/day
- LOAEL (dog [3]; [15]): 10 mg/kg/day
- NOAEL (dog [3]; [15]): 1 mg/kg/day
- LEL (dog [3]; [16]): 1 mg/kg/day
- NEL (dog [3]; [16]): < 1 mg/kg/day
- LEL (mouse [4]; [17]): 3.27 mg/kg/day
- LOAEL (mouse [4]; [17]): 3.27 mg/kg/day
- NEL (mouse [4]; [18]): 0.31 mg/kg/day
- NOAEL (mouse [4]; [18]): 0.31 mg/kg/day
- LEL (mouse [5]; [19]): 11.8 mg/kg/day
- LOAEL (mouse [5]; [19]): 11.8 mg/kg/day
- NEL (mouse [5]; [20]): 1.16 mg/kg/day
- NOAEL (mouse [5]; [20]): 1.16 mg/kg/day
- LEL (rat [6]): 6.62 mg/kg/day
- LOAEL (rat [6]): 6.62 mg/kg/day
- NEL (rat [6]): 0.662 mg/kg/day
- NOAEL (rat [6]): 0.662 mg/kg/day

SMILES: CCOc1nc(NC)nc(NC(=O)NS(=O)(=O)c2ccccc2C(=O)OC)n1 [Ethametsulfuron-methyl]
- LEL (rat [7]; [21]): 4000 mg/kg/day
- LOAEL (rat [7]; [21]): 4000 mg/kg/day
- NEL (rat [7]; [21]): 1000 mg/kg/day
- NOAEL (rat [7]; [21]): 1000 mg/kg/day
- LEL (rat [7]; [22]): 4000 mg/kg/day
- LOAEL (rat [7]; [22]): 4000 mg/kg/day
- NEL (rat [7]; [22]): 1000 mg/kg/day
- NOAEL (rat [7]; [22]): 1000 mg/kg/day
- LEL (rabbit; [17]): 1000 mg/kg/day
- LOAEL (rabbit; [17]): 1000 mg/kg/day
- NEL (rabbit; [23]): 250 mg/kg/day
- NOAEL (rabbit; [23]): 250 mg/kg/day
- LEL (rat [8]): 210 mg/kg/day
- LOAEL (rat [8]): > 210 mg/kg/day
- NEL (rat [8]): 21 mg/kg/day
- NOAEL (rat [8]): ≥ 210 mg/kg/day
- LEL (dog [9]): 478 mg/kg/day
- LOAEL (dog [9]): 478 mg/kg/day
- NEL (dog [9]): 87.3 mg/kg/day
- NOAEL (dog [9]): 87.3 mg/kg/day

SMILES: O=[As]([O-])([O-])[O-].[Na+].[Na+].[Na+] [Trisodium arsenate]
- LEL (mouse [10]; [24]): 0.00625 mg/kg/day
- NEL (mouse [10]; [24]): < 0.00625 mg/kg/day
- LOAEL (mouse [10]; [25]): 0.625 mg/kg/day
- NOAEL (mouse [10]; [25]): 0.00625 mg/kg/day
